According to publication PMC9963398, “Discovery of New Quinolone-Based Diarylamides as Potent B-RAF^V600E/C-RAF Kinase Inhibitors Endowed with Promising In Vitro Anticancer Activity” (International Journal of Molecular Sciences, 2023):

How the values were obtained:
[1] = tested on: NCI-H226; assay: NCI-60 five-dose SRB assay; assay type: cell-based; conditions: Homo sapiens; NCI-H226, NSCL cancer, five-dose test
Method: (§1) The anticancer screening of target compounds over a full panel of 60 human cancer cell lines was carried out using Sulforhodamine B (SRB) assay at the National Cancer Institute (NCI), Bethesda, Maryland, USA, employing the standard protocol.

[2] = tested on: ACHN; assay: NCI-60 five-dose SRB assay; assay type: cell-based; conditions: Homo sapiens, Renal cancer, five-dose test
Method: as §1

[3] = tested on: SR; assay: NCI-60 five-dose SRB assay; assay type: cell-based; conditions: Homo sapiens, Leukemia, five-dose test
Method: as §1

[4] = tested on: NCI-H322M; assay: NCI-60 five-dose SRB assay; assay type: cell-based; conditions: Homo sapiens, NSCL cancer, five-dose test
Method: as §1

[5] = tested on: M14; assay: NCI-60 five-dose SRB assay; assay type: cell-based; conditions: Homo sapiens; M14, Melanoma, five-dose test
Method: as §1

[6] = tested on: HOP-92; assay: NCI-60 five-dose SRB assay; assay type: cell-based; conditions: Homo sapiens; HOP-92, NSCL cancer, five-dose test
Method: as §1

[7] = tested on: MDA-MB-435; assay: NCI-60 five-dose SRB assay; assay type: cell-based; conditions: Homo sapiens; MDA-MB-435, Melanoma, five-dose test
Method: as §1

[8] = tested on: TK-10; assay: NCI-60 five-dose SRB assay; assay type: cell-based; conditions: Homo sapiens; TK-10, Renal cancer, five-dose test
Method: as §1

[9] = tested on: SK-MEL-5; assay: NCI-60 five-dose SRB assay; assay type: cell-based; conditions: Homo sapiens; SK-MEL-5, Melanoma, five-dose test
Method: as §1

[10] = tested on: MCF7; assay: NCI-60 five-dose SRB assay; assay type: cell-based; conditions: Homo sapiens; MCF7, Breast cancer, five-dose test
Method: as §1

[11] = tested on: RPMI-8226; assay: NCI-60 five-dose SRB assay; assay type: cell-based; conditions: Homo sapiens; RPMI-8226, Leukemia, five-dose test
Method: as §1

[12] = tested on: HL-60(TB); assay: NCI-60 five-dose SRB assay; assay type: cell-based; conditions: Homo sapiens, Leukemia, five-dose test
Method: as §1

[13] = tested on: HT29; assay: NCI-60 five-dose SRB assay; assay type: cell-based; conditions: Homo sapiens, HT-29; HT29, Colon cancer, five-dose test
Method: as §1

[14] = tested on: SF-268; assay: NCI-60 five-dose SRB assay; assay type: cell-based; conditions: Homo sapiens; SF-268, CNS cancer, five-dose test
Method: as §1

[15] = tested on: DU-145; assay: NCI-60 five-dose SRB assay; assay type: cell-based; conditions: Homo sapiens; DU-145, Prostate cancer, five-dose test
Method: as §1

[16] = tested on: SW-620; assay: NCI-60 five-dose SRB assay; assay type: cell-based; conditions: Homo sapiens; SW-620, Colon cancer, five-dose test
Method: as §1

[17] = tested on: HS 578T; assay: NCI-60 five-dose SRB assay; assay type: cell-based; conditions: Homo sapiens, Breast cancer, five-dose test
Method: as §1

[18] = tested on: K-562; assay: NCI-60 five-dose SRB assay; assay type: cell-based; conditions: Homo sapiens, K562; K-562, Leukemia, five-dose test
Method: as §1

[19] = tested on: T-47D; assay: NCI-60 five-dose SRB assay; assay type: cell-based; conditions: Homo sapiens, T47D, Breast cancer, five-dose test
Method: as §1

[20] = tested on: UO-31; assay: NCI-60 five-dose SRB assay; assay type: cell-based; conditions: Homo sapiens; UO-31, Renal cancer, five-dose test
Method: as §1

[21] = tested on: HCT-15; assay: NCI-60 five-dose SRB assay; assay type: cell-based; conditions: Homo sapiens; HCT-15, Colon cancer, five-dose test
Method: as §1

[22] = tested on: A549/ATCC; assay: NCI-60 five-dose SRB assay; assay type: cell-based; conditions: Homo sapiens, NSCL cancer, five-dose test
Method: as §1

[23] = tested on: HCT-116; assay: NCI-60 five-dose SRB assay; assay type: cell-based; conditions: Homo sapiens; HCT-116, Colon cancer, five-dose test
Method: as §1

[24] = tested on: CAKI-1; assay: NCI-60 five-dose SRB assay; assay type: cell-based; conditions: Homo sapiens; CAKI-1, Renal cancer, five-dose test
Method: as §1

[25] = tested on: SF-539; assay: NCI-60 five-dose SRB assay; assay type: cell-based; conditions: Homo sapiens; SF-539, CNS cancer, five-dose test
Method: as §1

[26] = tested on: UACC-62; assay: NCI-60 five-dose SRB assay; assay type: cell-based; conditions: Homo sapiens; UACC-62, Melanoma, five-dose test
Method: as §1

[27] = tested on: MALME-3M; assay: NCI-60 five-dose SRB assay; assay type: cell-based; conditions: Homo sapiens, Melanoma, five-dose test
Method: as §1

[28] = tested on: SNB-19; assay: NCI-60 five-dose SRB assay; assay type: cell-based; conditions: Homo sapiens; SNB-19, CNS cancer, five-dose test
Method: as §1

[29] = tested on: BT-549; assay: NCI-60 five-dose SRB assay; assay type: cell-based; conditions: Homo sapiens; BT-549, Breast cancer, five-dose test
Method: as §1

[30] = tested on: NCI-H522; assay: NCI-60 five-dose SRB assay; assay type: cell-based; conditions: Homo sapiens; NCI-H522, NSCL cancer, five-dose test
Method: as §1

[31] = tested on: SF-295; assay: NCI-60 five-dose SRB assay; assay type: cell-based; conditions: Homo sapiens; SF-295, CNS cancer, five-dose test
Method: as §1

[32] = tested on: SK-MEL-2; assay: NCI-60 five-dose SRB assay; assay type: cell-based; conditions: Homo sapiens; SK-MEL-2, Melanoma, five-dose test
Method: as §1

[33] = tested on: MOLT-4; assay: NCI-60 five-dose SRB assay; assay type: cell-based; conditions: Homo sapiens; MOLT-4, Leukemia, five-dose test
Method: as §1

[34] = tested on: KM12; assay: NCI-60 five-dose SRB assay; assay type: cell-based; conditions: Homo sapiens; KM12, Colon cancer, five-dose test
Method: as §1

[35] = tested on: LOX IMVI; assay: NCI-60 five-dose SRB assay; assay type: cell-based; conditions: Homo sapiens, Melanoma, five-dose test
Method: as §1

[36] = tested on: HOP-62; assay: NCI-60 five-dose SRB assay; assay type: cell-based; conditions: Homo sapiens; HOP-62, NSCL cancer, five-dose test
Method: as §1

[37] = tested on: IGROV1; assay: NCI-60 five-dose SRB assay; assay type: cell-based; conditions: Homo sapiens, IGROV-1; IGROV1, Ovarian cancer, five-dose test
Method: as §1

[38] = target: T1, B-RAF^V600E (Homo sapiens, UniProt P15056, V600E); assay: HotSpot kinase assay (RBC), B-RAF^V600E; assay type: biochemical; conditions: for IC50: 10 µM ATP, 10-dose singlicate IC50 mode
T1 construct: purchased Reaction Biology Corporation (RBC), Kinase HotSpot service

[39] = target: C-RAF (Homo sapiens, UniProt P04049); assay: HotSpot kinase assay (RBC), C-RAF; conditions: for IC50: IC50 C-RAF, 10 µM ATP, 10-dose singlicate IC50 mode
Description: Reaction Biology Corporation (RBC) Kinase HotSpotSM service was utilized for cell-free biochemical kinase evaluation of the target compounds according to the reported assay protocol [46].

[40] = tested on: MDA-MB-468; assay: cells; conditions: Homo sapiens
Method: as §1

[41] = tested on: PC-3; assay: cells; conditions: Homo sapiens
Method: as §1

[42] = tested on: MDA-MB-231/ATCC; assay: cells; conditions: Homo sapiens
Method: as §1

Sequence of C-RAF (P04049 whole entry): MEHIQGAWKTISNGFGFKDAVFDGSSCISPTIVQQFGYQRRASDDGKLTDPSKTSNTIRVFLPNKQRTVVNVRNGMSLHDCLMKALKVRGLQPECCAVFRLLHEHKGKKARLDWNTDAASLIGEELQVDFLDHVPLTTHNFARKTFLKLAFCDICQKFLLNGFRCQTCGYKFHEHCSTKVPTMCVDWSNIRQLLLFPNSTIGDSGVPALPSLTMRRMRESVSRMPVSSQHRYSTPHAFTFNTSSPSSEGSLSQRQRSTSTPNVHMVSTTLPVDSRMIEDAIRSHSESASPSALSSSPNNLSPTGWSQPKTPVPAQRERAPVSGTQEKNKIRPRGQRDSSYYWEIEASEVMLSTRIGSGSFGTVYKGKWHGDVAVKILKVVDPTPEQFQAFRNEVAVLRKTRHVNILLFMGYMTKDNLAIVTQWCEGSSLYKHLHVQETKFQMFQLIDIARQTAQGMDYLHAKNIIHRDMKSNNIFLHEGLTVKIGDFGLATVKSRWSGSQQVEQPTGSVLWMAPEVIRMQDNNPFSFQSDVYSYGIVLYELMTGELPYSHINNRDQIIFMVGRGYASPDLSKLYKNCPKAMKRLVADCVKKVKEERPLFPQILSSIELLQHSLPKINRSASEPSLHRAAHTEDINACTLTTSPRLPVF
T1 sequence (P15056 whole entry V600E): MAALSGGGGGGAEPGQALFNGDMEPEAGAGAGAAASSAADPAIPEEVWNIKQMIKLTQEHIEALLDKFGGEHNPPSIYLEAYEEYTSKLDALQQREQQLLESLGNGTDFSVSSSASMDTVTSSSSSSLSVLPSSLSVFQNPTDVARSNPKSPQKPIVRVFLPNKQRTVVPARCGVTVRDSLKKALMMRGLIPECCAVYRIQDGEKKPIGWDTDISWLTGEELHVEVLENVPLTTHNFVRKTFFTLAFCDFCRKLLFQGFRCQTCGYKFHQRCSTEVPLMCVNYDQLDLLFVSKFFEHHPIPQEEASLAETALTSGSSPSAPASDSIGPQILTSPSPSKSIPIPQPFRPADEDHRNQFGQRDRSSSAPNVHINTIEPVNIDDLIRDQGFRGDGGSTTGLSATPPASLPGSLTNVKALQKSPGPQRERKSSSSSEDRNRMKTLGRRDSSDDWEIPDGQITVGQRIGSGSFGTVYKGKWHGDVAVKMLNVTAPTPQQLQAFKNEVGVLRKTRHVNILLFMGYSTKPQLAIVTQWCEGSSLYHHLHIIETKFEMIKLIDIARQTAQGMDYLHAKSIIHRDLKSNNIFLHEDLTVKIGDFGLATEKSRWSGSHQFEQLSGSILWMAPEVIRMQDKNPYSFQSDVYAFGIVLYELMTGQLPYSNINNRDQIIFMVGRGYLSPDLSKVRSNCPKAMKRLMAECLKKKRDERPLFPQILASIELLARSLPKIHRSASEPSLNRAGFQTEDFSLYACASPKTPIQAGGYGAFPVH

COc1ccc2nc(Nc3cccc(NC(=O)c4ccc(CN5CCN(C)CC5)c(C(F)(F)F)c4)c3)ccc2c1 [Compound 16a, N-(3-((6-methoxyquinolin-2-yl)amino)phenyl)-4-((4-methylpiperazin-1-yl)methyl)-3-(trifluoromethyl)benzamide]
GI50 [1]: 4.6 µM | GI50 [2]: 4.88 µM | GI50 [3]: 1.31 µM | GI50 [4]: 6.06 µM | GI50 [5]: 3.63 µM | GI50 [6]: 1.36 µM | GI50 [7]: 5.73 µM | GI50 [8]: 6.52 µM | GI50 [9]: 5.1 µM | GI50 [10]: 1.37 µM | GI50 [11]: 3.14 µM | GI50 [12]: 5.46 µM | GI50 [13]: 1.32 µM | GI50 [14]: 5.2 µM | GI50 [15]: 5.24 µM | GI50 [16]: 5.89 µM | GI50 [17]: 4.14 µM | GI50 [18]: 0.882 µM | GI50 [19]: 4.12 µM | GI50 [20]: 5.68 µM | GI50 [21]: 1.18 µM | GI50 [22]: 4.36 µM | GI50 [23]: 2.41 µM | GI50 [24]: 4.9 µM | GI50 [25]: 2.08 µM | GI50 [26]: 6.45 µM | GI50 [27]: 4.62 µM | GI50 [28]: 6.14 µM | GI50 [29]: 5.58 µM | GI50 [30]: 4.88 µM | GI50 [31]: 3.41 µM | GI50 [32]: 5.98 µM | GI50 [33]: 1.63 µM | GI50 [34]: 4.05 µM | GI50 [35]: 1.55 µM | GI50 [36]: 6.36 µM | GI50 [37]: 6.22 µM | IC50 [38]: 0.193 ± 0.0076 µM | better kinase inhibition activity compared to 14a, B-RAF^V600E ([38]; ratio of IC50 versus 14a): 2.6 fold | IC50 [39]: 0.103 ± 0.00265 µM | better kinase inhibition activity compared to 14a, C-RAF ([39]; ratio of IC50 versus 14a): 1.5 fold | GI50 [40]: 1.56 µM | GI50 [41]: 2.9 µM | GI50 [42]: 1.84 µM

CN1CCN(Cc2ccc(C(=O)Nc3cccc(Nc4ccc5c(O)cccc5n4)c3)cc2C(F)(F)F)CC1 [Compound 17a, N-(3-((5-hydroxyquinolin-2-yl)amino)phenyl)-4-((4-methylpiperazin-1-yl)methyl)-3-(trifluoromethyl)benzamide]
GI50 [1]: 19.2 µM | GI50 [2]: 2.07 µM | GI50 [3]: 4.39 µM | GI50 [4]: 3.23 µM | GI50 [5]: 2.21 µM | GI50 [6]: 1.32 µM | GI50 [7]: 1.78 µM | GI50 [8]: 3.36 µM | GI50 [9]: 1.68 µM | GI50 [10]: 1.74 µM | GI50 [11]: 2.92 µM | GI50 [12]: 2.47 µM | GI50 [13]: 2.06 µM | GI50 [14]: 3.81 µM | GI50 [15]: 4.68 µM | GI50 [16]: 2.24 µM | GI50 [17]: 2.96 µM | GI50 [18]: 2.42 µM | GI50 [19]: 10.7 µM | GI50 [20]: 1.99 µM | GI50 [21]: 1.82 µM | GI50 [22]: 4.5 µM | GI50 [23]: 2.7 µM | GI50 [24]: 2.13 µM | GI50 [25]: 1.67 µM | GI50 [26]: 1.73 µM | GI50 [27]: 1.67 µM | GI50 [28]: 2.39 µM | GI50 [29]: 15.6 µM | GI50 [30]: 1.93 µM | GI50 [31]: 1.65 µM | GI50 [32]: 1.92 µM | GI50 [33]: 1.86 µM | GI50 [34]: 2.3 µM | GI50 [35]: 1.65 µM | GI50 [36]: 3 µM | GI50 [37]: 4.7 µM | IC50 [38]: 0.137 ± 0.0132 µM | IC50 [39]: 0.095 ± 0.0173 µM | GI50 [40]: 1.62 µM | GI50 [41]: 2.53 µM | GI50 [42]: 1.62 µM
